In patent US20130315843A1, “COMPOSITION FOR REDUCTION OF TRPA1 AND TRPV1 SENSATIONS” (priority 2012, published 2013):
Read-outs that look alike come from different tables or passages of the source.

Target: human TRPA1 (Homo sapiens, UniProt O75762)
Assay: FLIPR Ca2+ assay, reduction of hydrogen peroxide activation of TRPA1
Type: cell-based
Parameters: expressed in transfected cells
Settings: for inhibition at 400 µM / inhibition at 100 µM: read-out: % Reduction of Hydrogen Peroxide TRPA1 Activation
Description: After centrifugation, a pellet of cells was formed in the bottom of the tube separating them from the supernatant solution.
The pelleted cells were re-suspended in 10 ml assay buffer and 90 μl aliquots (˜50,000 cells) per well delivered to a 96-well assay plate containing 10 μl of test compounds ([…]) or buffer control and incubated at room temperature for 30 minutes.

[1] = 100 μM antagonist vs 500 μM hydrogen peroxide
[2] = 400 μM antagonist vs 500 μM hydrogen peroxide
[3] = antagonist 400 μM against 200 μM hydrogen peroxide
[4] = compound 100 μM against 200 μM hydrogen peroxide, Sets 1-4

human TRPA1, sequence (O75762 whole entry): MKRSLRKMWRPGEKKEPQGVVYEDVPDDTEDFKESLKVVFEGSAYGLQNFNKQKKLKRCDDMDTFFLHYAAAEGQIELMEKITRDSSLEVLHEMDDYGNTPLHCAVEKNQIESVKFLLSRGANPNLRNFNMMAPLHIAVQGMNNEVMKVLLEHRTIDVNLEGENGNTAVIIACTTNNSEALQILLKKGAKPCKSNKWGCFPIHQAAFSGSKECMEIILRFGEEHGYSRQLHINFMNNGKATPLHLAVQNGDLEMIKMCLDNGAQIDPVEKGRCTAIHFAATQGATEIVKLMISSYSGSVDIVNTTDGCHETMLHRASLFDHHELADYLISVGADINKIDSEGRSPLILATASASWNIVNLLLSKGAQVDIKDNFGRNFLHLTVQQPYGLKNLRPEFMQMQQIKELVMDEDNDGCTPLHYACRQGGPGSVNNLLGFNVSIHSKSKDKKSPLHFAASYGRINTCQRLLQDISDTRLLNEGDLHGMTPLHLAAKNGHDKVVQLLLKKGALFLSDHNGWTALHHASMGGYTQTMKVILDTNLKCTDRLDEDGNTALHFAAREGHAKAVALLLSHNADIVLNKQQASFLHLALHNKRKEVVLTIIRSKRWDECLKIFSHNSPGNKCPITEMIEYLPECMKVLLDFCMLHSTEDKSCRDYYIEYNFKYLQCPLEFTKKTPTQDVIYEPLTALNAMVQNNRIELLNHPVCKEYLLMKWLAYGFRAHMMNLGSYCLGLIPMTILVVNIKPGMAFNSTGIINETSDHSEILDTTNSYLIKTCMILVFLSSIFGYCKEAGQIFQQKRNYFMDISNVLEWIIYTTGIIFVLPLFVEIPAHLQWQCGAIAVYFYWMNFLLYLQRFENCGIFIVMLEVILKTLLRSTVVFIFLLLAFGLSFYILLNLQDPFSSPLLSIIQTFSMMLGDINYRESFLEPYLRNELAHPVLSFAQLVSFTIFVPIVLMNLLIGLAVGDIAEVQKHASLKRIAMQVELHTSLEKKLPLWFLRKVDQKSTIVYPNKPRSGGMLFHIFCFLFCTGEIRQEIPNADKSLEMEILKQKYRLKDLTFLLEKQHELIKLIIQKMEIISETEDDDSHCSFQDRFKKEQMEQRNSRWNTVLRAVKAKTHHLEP

Block of hydrogen peroxide activation of TRPA1 [1]	Average Ca++ Counts [4] [Counts]	inhibition at 100 µM [4] [%]	SMILES	also measured
–	–	–	CCCCC(=O)OC1CC2CCC1(C)C2(C)C (centres unmarked) [Bornyl Valerate]	Block of hydrogen peroxide activation of TRPA1 [2]: BLOCK ONLY H2O2/TRPA1; inhibition at 400 µM [3]: 52%
–	–	–	CCCC1CC(=O)C=C(C)C1 (centres unmarked) [Celery Ketone, 2-Cyclohexen-1-one, 3-methyl-5-propyl-]	inhibition at 400 µM [3]: 56%
–	–	–	CC(=O)OCCC(C)CCC=C(C)C (centres unmarked) [Citronellyl acetate]	Block of hydrogen peroxide activation of TRPA1 [2]: BLOCK ONLY H2O2/TRPA1; inhibition at 400 µM [3]: 70%
–	–	–	C[C@H]1CC[C@]2(O1)C(C)(C)CCC[C@]2(C)O [Hydroxydihydrotheaspirane, 1-Oxaspiro[4.5]decan-6-ol, 2,6,10,10-tetramethyl-, (2S,5S,6S)-6-]	% Reduction of Hydrogen Peroxide TRPA1 Activation [3]: 57%
–	–	–	COC(=O)c1ccccc1OC [Methyl 2-methoxy-benzoate]	Block of hydrogen peroxide activation of TRPA1 [2]: BLOCK ONLY H2O2/TRPA1; inhibition at 400 µM [3]: 48%
–	–	–	COC(=O)CCCc1ccccc1 [Methyl-4-phenyl butyrate]	Block of hydrogen peroxide activation of TRPA1 [2]: BLOCK ONLY H2O2/TRPA1; % Reduction of Hydrogen Peroxide TRPA1 Activation [3]: 60%
–	–	–	CC(O)C(=O)NCCO (centres unmarked) [N-(2-Hydroxyethyl) lactamide]	Block of hydrogen peroxide activation of TRPA1 [2]: BLOCK ONLY H2O2/TRPA1; inhibition at 400 µM [3]: 65%
–	–	–	CCCCCCC1CCCC(=O)O1 (centres unmarked) [Undecanoic-δ-Lactone]	% Reduction of Hydrogen Peroxide TRPA1 Activation: −42%
BLOCK ONLY H2O2/TRPA1	–	–	COc1cc(C(=O)O)ccc1O [Vanillic Acid]	inhibition at 100 µM (antagonist 100 μM against 200 μM hydrogen peroxide): 19%
–	–	–	CC1=CC(O)CC(C)C2CC(=C(C)C)CC12 (centres unmarked) [Vetiverol, 6-Azulenol, 1,2,3,3a,4,5,6,8a-octahydro-4,8-dimethyl-2-(1-methylethylidene)-]	inhibition at 400 µM [3]: -34%
BLOCK ONLY H2O2/TRPA1	2860.5	59.4	C=C(C)OC(C)=O [acetic acid isopropenyl ester]	–
BLOCK ONLY H2O2/TRPA1	4341.5	59	CC(=O)C(C)O (centres unmarked) [acetoin]	–
BLOCK ONLY H2O2/TRPA1	3149.0	55.3	CCCCCO [amyl alcohol]	–
BLOCK ONLY H2O2/TRPA1	2385.0	59.4	C/C=C(\C)C(=O)OCc1ccccc1 [benzyl tiglate]	–
BLOCK ONLY H2O2/TRPA1	5193.0	51	CC=CC(=O)O [but-2-enoic acid]	–
BLOCK ONLY H2O2/TRPA1	5157.0	51.3	CCCCOC(=O)C(C)O (centres unmarked) [butyl lactate]	–
BLOCK ONLY H2O2/TRPA1	4725.5	55.4	CCCC=O [butyraldehyde]	–
–	–	–	Cc1ccc(C(C)C)cc1O [carvacrol]	Average Ca++ Counts: 3464.5 Counts; inhibition at 100 µM: 50.8%
BLOCK ONLY H2O2/TRPA1	2253.5	68	CCC(C)(O)CCc1ccccc1 (stereo not drawn) [ethyl methyl beta-phenylethyl carbinol]	–
BLOCK ONLY H2O2/TRPA1	2761.5	60.8	CC12CCC(C1)C(C)(C)C2=O (centres unmarked) [fenchone]	–

SMILES	Block of hydrogen peroxide activation of TRPA1 [1]	Average Ca++ Counts [4] [Counts]	inhibition at 100 µM [4] [%]	also measured
C=C(C)c1ccc(C)cc1 [Alpha-p-dimethylstyrene]	BLOCK ONLY H2O2/TRPA1	–	–	–
CC(=O)OCC(C)(C)Cc1ccccc1 [alpha,alpha-dimethylhydrocinnamyl acetate]	–	3367.0	52.2	–
C=C(C)c1ccc(C)cc1 [alpha,p-dimethylstyrene]	–	3735.5	–	% Reduction of Hydrogen Peroxide TRPA1 Activation [4]: 57.2%
[Cl][Fe]([Cl])[Cl] [ferric chloride]	BLOCK ONLY H2O2/TRPA1	3287.0	–	% Reduction of Hydrogen Peroxide TRPA1 Activation [4]: 53.3%
